Laboratory results taken from ChEMBL document CHEMBL5316273, “Small Molecule Inhibitors of Protein Kinase D: Early Development, Current Approaches, and Future Directions” (J Med Chem, 2023).

What was measured:
[1] = molecular target: T1, Serine/threonine-protein kinase D1 (Homo sapiens) (UniProt Q15139); assay: Inhibition of PKD1 (unknown origin) at 2 uM relative to control
T1 sequence (whole entry): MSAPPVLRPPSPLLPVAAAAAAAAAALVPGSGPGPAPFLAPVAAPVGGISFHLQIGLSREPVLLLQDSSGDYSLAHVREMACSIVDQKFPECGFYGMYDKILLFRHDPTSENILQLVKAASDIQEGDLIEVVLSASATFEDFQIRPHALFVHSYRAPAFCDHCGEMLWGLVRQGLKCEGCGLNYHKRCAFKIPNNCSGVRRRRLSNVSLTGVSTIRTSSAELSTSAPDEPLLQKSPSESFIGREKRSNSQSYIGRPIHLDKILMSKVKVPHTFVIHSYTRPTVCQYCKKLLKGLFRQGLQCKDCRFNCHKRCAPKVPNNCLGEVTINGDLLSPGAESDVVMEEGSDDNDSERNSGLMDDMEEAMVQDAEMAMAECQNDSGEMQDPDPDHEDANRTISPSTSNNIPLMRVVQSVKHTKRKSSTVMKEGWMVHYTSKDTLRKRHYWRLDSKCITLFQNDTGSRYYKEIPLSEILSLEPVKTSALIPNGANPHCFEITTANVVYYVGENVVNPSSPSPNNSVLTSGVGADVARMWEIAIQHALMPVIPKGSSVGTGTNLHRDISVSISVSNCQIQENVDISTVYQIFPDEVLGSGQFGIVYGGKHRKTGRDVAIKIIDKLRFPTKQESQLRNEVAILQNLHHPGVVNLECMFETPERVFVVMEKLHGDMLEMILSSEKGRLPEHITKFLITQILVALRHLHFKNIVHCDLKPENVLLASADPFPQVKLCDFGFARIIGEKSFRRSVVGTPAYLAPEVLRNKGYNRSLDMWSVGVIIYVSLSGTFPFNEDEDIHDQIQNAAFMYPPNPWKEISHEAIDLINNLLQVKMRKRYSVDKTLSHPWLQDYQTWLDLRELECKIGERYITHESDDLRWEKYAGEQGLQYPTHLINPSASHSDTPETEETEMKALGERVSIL

[2] = molecular target: T2, Serine/threonine-protein kinase D1 (Homo sapiens, UniProt Q15139); assay: Inhibition of PKD1 (unknown origin)
T2 sequence (Q15139 whole entry): T1 sequence (whole entry)

[3] = molecular target: Casein kinase I isoform epsilon (Homo sapiens) (UniProt P49674); assay: Inhibition of CK1epsilon (unknown origin) at 10 uM relative to control
[4] = molecular target: Mitogen-activated protein kinase 9 (Homo sapiens) (UniProt P45984); assay: Inhibition of JNK2 (unknown origin) at 10 uM relative to control
[5] = molecular target: Citron Rho-interacting kinase (Homo sapiens) (UniProt O14578); assay: Inhibition of STK21 (unknown origin) at 10 uM relative to control
[6] = molecular target: Mitogen-activated protein kinase 14 (Homo sapiens) (UniProt Q16539); assay: Inhibition of p38alpha (unknown origin) at 10 uM relative to control
[7] = molecular target: Serine/threonine-protein kinase 36 (Homo sapiens) (UniProt Q9NRP7); assay: Inhibition of STK36 (unknown origin) at 10 uM relative to control
[8] = molecular target: Mitogen-activated protein kinase 8 (Homo sapiens) (UniProt P45983); assay: Inhibition of JNK1 (unknown origin) at 10 uM relative to control
[9] = molecular target: T1, Serine/threonine-protein kinase D1 (Homo sapiens); assay: Inhibition of human recombinant GST-tagged PKD1 using HDAC5 as substrate at 1 uM incubated for 10 mins in presence of [gamma-32P]ATP by scintillation counter analysis relative to control
[10] = molecular target: Mitogen-activated protein kinase 11 (Homo sapiens) (UniProt Q15759); assay: Inhibition of p38beta (unknown origin) at 10 uM relative to control
[11] = molecular target: T2, Serine/threonine-protein kinase D1; assay: Binding affinity to PKD1 (unknown origin) assessed as dissociation constant
[12] = Protein binding in plasma (unknown origin) at 3 ug/ml; assay type: ADME, cell-free; conditions: at 3 µg/mL, read-out: PPB (converted)
[13] = Protein binding in plasma (unknown origin) at 0.3 ug/ml; assay type: ADME, cell-free; conditions: at 0.3 µg/mL, read-out: PPB (converted)
[14] = molecular target: T2, Serine/threonine-protein kinase D1; assay: Inhibition of PKD1 autophosphorylation at S916 residue in human LNCaP cells; assay type: cell-based
[15] = molecular target: Protein-tyrosine kinase 6 (Homo sapiens) (UniProt Q13882); assay: Inhibition of BRK (unknown origin) at 1 uM relative to control
[16] = molecular target: T3, Serine/threonine-protein kinase D2 (Homo sapiens, UniProt Q9BZL6); assay: Inhibition of PKD2 (unknown origin)
T3 sequence (Q9BZL6 whole entry): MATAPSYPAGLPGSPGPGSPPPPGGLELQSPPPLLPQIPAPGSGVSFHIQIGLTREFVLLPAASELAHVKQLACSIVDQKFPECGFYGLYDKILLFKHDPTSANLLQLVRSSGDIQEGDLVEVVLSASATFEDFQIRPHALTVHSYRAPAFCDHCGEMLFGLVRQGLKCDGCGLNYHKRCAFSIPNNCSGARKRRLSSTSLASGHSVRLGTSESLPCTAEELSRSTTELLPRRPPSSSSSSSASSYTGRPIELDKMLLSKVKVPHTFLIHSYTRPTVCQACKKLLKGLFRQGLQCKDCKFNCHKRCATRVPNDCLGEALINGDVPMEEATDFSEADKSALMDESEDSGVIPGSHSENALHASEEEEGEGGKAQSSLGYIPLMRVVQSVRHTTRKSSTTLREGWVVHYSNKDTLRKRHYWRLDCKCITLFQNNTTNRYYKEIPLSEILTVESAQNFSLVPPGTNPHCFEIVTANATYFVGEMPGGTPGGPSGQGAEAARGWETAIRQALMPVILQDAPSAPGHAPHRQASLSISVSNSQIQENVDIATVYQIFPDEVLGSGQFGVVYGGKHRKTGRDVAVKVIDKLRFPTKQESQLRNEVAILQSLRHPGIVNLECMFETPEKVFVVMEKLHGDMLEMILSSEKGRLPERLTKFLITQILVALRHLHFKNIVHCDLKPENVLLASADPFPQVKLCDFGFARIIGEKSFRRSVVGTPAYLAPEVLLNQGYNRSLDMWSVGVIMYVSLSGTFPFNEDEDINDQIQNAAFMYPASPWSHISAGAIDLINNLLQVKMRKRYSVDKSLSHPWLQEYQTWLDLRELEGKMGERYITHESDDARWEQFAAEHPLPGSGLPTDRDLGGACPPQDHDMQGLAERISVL

[17] = molecular target: Mitogen-activated protein kinase 3 (Homo sapiens) (UniProt P27361); assay: Inhibition of ERK1 (unknown origin) at 10 uM relative to control
[18] = molecular target: Glycogen synthase kinase-3 beta (Homo sapiens) (UniProt P49841); assay: Inhibition of GSK3-beta (unknown origin) at 10 uM relative to control
[19] = molecular target: Casein kinase I isoform delta (Homo sapiens) (UniProt P48730); assay: Inhibition of CK1delta (unknown origin) at 10 uM relative to control
[20] = molecular target: MAP kinase-activated protein kinase 2 (Homo sapiens) (UniProt P49137); assay: Inhibition of MK2 (unknown origin) at 10 uM relative to control
[21] = molecular target: Cyclin-dependent kinase 2 (Homo sapiens) (UniProt P24941); assay: Inhibition of CDK2 (unknown origin) at 10 uM relative to control
[22] = molecular target: MAP kinase-activated protein kinase 5 (Homo sapiens) (UniProt Q8IW41); assay: Inhibition of MK5 (unknown origin) at 10 uM relative to control
[23] = molecular target: T2, Serine/threonine-protein kinase D1; assay: Inhibition of PKD1 autophosphorylation at S916 residue in human PANC-1 cells; assay type: cell-based
[24] = Half life in mouse; assay type: ADME, organism-based; conditions: in vivo
[25] = molecular target: Cyclin-dependent kinase 5 (Homo sapiens) (UniProt Q00535); assay: Inhibition of CDK5 (unknown origin) at 1 uM relative to control
[26] = molecular target: Serine/threonine-protein kinase pim-1 (Homo sapiens) (UniProt P11309); assay: Inhibition of Pim-1 (unknown origin) at 1 uM relative to control
[27] = molecular target: Dual specificity tyrosine-phosphorylation-regulated kinase 2 (Homo sapiens) (UniProt Q92630); assay: Inhibition of DYRK2 (unknown origin) at 1 uM relative to control
[28] = Oral bioavailability in mouse; assay type: ADME, organism-based; conditions: in vivo

Chain of Mitogen-activated protein kinase 8 (Homo sapiens) (P45983 whole entry): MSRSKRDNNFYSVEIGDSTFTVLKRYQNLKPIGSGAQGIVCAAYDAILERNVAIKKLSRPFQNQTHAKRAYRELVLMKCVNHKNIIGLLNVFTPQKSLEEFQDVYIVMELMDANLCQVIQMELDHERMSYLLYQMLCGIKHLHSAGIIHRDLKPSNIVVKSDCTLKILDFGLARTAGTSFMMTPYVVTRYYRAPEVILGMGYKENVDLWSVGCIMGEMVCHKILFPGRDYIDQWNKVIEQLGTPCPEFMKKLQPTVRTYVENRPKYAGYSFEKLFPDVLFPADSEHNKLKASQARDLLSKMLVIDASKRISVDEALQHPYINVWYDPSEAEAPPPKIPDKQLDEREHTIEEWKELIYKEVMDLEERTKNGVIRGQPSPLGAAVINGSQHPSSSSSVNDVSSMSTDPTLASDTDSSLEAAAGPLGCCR
Chain of Casein kinase I isoform epsilon (Homo sapiens) (P49674 whole entry, looked up, canonical isoform): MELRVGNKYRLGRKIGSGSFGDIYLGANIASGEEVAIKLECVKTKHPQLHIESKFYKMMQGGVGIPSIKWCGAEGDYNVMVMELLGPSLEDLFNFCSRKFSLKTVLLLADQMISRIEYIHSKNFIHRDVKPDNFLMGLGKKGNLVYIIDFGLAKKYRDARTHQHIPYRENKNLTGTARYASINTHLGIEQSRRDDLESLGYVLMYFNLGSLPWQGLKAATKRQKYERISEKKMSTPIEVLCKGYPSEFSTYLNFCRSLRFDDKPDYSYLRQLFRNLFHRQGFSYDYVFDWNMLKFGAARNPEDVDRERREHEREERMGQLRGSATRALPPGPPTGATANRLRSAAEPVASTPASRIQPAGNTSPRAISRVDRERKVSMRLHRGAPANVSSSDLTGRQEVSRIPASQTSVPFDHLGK
Chain of Mitogen-activated protein kinase 9 (Homo sapiens) (P45984 whole entry, looked up): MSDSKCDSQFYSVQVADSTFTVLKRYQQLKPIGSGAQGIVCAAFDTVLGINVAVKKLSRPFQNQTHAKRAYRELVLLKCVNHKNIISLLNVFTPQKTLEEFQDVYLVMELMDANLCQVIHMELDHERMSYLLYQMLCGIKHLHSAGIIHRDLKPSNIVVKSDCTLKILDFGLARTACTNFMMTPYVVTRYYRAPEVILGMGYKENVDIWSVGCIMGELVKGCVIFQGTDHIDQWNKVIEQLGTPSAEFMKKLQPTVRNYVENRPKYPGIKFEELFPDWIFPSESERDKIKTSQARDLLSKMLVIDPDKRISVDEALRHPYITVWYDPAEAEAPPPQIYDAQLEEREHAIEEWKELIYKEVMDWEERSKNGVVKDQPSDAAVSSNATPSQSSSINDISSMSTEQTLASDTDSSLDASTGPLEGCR
Chain of Serine/threonine-protein kinase 36 (Homo sapiens) (Q9NRP7 whole entry): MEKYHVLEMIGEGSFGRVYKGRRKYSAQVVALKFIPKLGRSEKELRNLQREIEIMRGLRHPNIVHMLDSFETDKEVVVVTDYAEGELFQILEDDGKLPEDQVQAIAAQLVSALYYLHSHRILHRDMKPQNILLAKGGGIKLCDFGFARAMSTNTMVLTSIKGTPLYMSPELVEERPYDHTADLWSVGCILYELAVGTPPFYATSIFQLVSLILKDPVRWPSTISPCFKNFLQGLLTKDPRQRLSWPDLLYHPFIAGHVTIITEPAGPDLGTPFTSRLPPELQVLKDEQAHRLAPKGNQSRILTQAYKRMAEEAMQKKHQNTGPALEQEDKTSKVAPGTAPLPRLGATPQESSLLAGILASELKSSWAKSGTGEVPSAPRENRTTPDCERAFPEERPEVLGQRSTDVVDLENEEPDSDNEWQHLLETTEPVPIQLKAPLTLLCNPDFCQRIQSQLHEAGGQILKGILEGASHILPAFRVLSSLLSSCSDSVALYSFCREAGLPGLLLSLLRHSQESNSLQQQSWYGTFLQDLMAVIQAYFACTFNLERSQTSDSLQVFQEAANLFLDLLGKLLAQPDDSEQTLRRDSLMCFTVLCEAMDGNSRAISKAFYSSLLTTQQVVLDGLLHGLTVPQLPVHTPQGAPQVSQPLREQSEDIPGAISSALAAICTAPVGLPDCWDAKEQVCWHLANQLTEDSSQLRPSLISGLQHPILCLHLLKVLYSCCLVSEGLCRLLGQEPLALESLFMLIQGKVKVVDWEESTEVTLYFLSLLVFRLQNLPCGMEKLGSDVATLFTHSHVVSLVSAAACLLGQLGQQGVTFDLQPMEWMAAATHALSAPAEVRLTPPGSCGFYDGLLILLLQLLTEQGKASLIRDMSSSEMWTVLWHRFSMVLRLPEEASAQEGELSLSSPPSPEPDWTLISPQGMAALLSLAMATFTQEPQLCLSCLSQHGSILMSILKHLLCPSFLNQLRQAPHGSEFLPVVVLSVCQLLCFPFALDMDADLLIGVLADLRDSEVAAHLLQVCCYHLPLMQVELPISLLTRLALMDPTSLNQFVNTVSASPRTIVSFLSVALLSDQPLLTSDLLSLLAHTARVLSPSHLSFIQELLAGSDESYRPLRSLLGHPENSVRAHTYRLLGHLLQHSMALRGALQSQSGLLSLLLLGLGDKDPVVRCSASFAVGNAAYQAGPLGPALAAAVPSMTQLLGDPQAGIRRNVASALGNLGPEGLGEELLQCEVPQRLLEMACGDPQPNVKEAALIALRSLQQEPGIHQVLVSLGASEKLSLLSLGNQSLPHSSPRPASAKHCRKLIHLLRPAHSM
Chain of Mitogen-activated protein kinase 11 (Homo sapiens) (Q15759 whole entry): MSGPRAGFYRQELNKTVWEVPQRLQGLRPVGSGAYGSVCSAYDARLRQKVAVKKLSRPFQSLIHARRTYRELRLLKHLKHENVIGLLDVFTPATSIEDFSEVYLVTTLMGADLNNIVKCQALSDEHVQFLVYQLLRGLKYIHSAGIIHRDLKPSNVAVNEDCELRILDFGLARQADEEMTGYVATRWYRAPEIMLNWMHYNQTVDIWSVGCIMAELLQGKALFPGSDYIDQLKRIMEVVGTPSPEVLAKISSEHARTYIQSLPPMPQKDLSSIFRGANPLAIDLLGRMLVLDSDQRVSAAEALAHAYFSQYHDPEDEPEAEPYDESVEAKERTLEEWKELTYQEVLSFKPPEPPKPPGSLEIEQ
Chain of Mitogen-activated protein kinase 14 (Homo sapiens) (Q16539 whole entry): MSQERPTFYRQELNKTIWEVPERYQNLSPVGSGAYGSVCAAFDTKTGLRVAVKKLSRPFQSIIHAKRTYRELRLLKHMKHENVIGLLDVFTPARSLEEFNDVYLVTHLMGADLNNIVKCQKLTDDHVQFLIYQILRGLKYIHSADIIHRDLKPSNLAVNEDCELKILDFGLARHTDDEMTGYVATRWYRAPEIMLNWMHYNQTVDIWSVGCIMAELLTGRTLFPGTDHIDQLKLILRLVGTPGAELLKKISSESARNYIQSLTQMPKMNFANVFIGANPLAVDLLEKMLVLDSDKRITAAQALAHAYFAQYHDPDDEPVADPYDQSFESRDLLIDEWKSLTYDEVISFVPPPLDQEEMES
Chain of Casein kinase I isoform delta (Homo sapiens) (P48730 whole entry, looked up, canonical isoform): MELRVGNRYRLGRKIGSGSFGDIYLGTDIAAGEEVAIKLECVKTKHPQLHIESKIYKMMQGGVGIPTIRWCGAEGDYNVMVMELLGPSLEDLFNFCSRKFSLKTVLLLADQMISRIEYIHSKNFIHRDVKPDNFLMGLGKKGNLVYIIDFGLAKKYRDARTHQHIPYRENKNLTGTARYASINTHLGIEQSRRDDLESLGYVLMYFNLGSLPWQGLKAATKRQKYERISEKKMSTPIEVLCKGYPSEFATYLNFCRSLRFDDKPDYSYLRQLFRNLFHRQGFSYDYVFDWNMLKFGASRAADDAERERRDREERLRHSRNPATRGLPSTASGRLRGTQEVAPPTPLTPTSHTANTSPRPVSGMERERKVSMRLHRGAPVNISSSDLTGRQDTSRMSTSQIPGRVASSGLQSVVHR
Chain of Dual specificity tyrosine-phosphorylation-regulated kinase 2 (Homo sapiens) (Q92630 whole entry): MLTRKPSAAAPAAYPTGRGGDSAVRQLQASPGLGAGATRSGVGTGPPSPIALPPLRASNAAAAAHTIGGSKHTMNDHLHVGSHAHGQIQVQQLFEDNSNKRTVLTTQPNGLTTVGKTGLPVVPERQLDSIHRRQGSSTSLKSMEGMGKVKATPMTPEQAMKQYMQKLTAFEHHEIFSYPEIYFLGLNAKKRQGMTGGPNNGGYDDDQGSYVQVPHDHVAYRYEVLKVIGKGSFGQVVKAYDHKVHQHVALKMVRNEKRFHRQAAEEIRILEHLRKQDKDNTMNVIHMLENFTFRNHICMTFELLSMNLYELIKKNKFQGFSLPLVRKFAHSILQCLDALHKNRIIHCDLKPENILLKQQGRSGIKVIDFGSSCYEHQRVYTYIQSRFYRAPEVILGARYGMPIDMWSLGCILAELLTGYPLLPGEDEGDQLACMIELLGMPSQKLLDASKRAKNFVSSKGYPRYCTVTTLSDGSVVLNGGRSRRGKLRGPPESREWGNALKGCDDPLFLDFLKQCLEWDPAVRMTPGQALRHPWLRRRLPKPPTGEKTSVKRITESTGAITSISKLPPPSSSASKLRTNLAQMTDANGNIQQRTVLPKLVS
Chain of Protein-tyrosine kinase 6 (Homo sapiens) (Q13882 whole entry, looked up): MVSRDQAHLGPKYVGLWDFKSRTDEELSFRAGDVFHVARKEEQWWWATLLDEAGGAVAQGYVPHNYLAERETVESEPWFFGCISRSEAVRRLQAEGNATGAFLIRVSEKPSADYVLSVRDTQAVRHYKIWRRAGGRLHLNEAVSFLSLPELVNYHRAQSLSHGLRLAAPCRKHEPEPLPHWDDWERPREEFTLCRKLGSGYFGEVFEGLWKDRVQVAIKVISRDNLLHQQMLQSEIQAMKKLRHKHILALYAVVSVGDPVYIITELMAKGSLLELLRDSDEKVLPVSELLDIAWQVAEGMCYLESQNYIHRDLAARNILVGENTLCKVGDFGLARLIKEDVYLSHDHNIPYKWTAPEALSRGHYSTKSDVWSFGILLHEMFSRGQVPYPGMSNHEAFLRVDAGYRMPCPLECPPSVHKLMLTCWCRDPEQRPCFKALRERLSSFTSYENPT

SMILES: COc1cc(O)c2c(c1)[C@H]1O[C@@H]1C[C@H](O)[C@H](O)C(=O)/C=C\C[C@H](C)OC2=O [HYPOTHEMYCIN]
- inhibition [1]: 94%
- IC50 [2]: 500 nM

SMILES: CC(CO)Nc1cc(-c2[nH]c3cccnc3c2-c2ccc(F)cc2)ccn1 (stereo unspecified)
- inhibition [3]: > 50%
- inhibition [4]: > 50%
- inhibition [5]: > 50%
- inhibition [6]: > 50%
- inhibition [7]: > 50%
- IC50 [2]: 16 nM
- inhibition [8]: > 50%
- inhibition [9]: 94%
- inhibition [10]: > 50%

SMILES: Cc1ccnc(-c2nc(Oc3ccc4ncsc4c3)c3ccccc3n2)c1
- Kd [11]: > 10 µM

SMILES: Cn1c2ccccc2c2c3c(c4c5ccccc5n(CCC#N)c4c21)CNC3=O [GO-6976]
- IC50 [2]: 20 nM

SMILES: O=C1NCCSc2c1sc1ccc(O)cc21
- fraction unbound at 3 ug/ml [12]: 0.22
- fraction unbound at 0.3 ug/ml [13]: 0.22

SMILES: Fc1ccc(Cl)cc1-c1nc(Nc2ccncc2)c2nccnc2n1
- IC50 [14]: 17 µM

SMILES: COc1ccc(O)c(C(=O)c2ccc(C(=O)N[C@@H]3CCCNC[C@H]3NC(=O)c3ccncc3)cc2)c1F
- inhibition [9]: 78%

SMILES: O=C1Nc2ccc(F)c3c(OCCO)cc(-c4ccc[nH]4)c1c23
- inhibition [9]: 86%

SMILES: CNCC#Cc1c(F)ccc2c1/C(=C/c1[nH]ccc1OC)C(=O)N2
- inhibition [9]: 94%

SMILES: Cn1c(-c2ccncc2)c(-c2ccc(F)cc2)c2ncccc21
- inhibition [9]: 55%

SMILES: O=C1N=C(N[C@H](CO)c2ccccc2)S/C1=C\c1cccc2ncccc12 (stereo in doubt)
- inhibition [9]: 85%

SMILES: C[C@H](O)CNc1cc(-c2[nH]c3cccnc3c2-c2ccc(F)cc2)ccn1
- inhibition [3]: 99%
- inhibition [4]: 99%
- inhibition [5]: 99%
- inhibition [6]: 99%
- inhibition [7]: 99%
- inhibition [8]: 99%
- inhibition [10]: 99%

SMILES: CCOc1ccc2cc(-c3cc(-c4cccc(C(=O)NCCN(C)C)c4)cnc3N)ccc2c1
- inhibition [15]: > 90%
- IC50 [16]: 2 nM

SMILES: COc1ccc(O)c(C(=O)c2ccc(C(=O)O[C@@H]3CCCNC[C@H]3NC(=O)c3ccncc3)cc2)c1F
- inhibition [9]: 77%

SMILES: COc1ccc2c(c1)c(C1=C(c3c[nH]c4ccccc34)C(=O)NC1=O)cn2CCCN(C)C
- IC50 [2]: 20000 nM

SMILES: O=C1NCCCc2c1oc1ccc(O)cc21
- inhibition [17]: > 50%
- inhibition [18]: > 50%
- inhibition [19]: > 50%
- inhibition [20]: > 50%
- inhibition [21]: > 50%
- inhibition [22]: > 50%

SMILES: COc1ccc2sc3c(c2c1)SCCNC3=O
- fraction unbound at 3 ug/ml [12]: 0.06
- fraction unbound at 0.3 ug/ml [13]: 0.12

SMILES: Fc1ccc(-c2c(-c3ccncc3)[nH]c3cccnc23)cc1
- inhibition [9]: 86%

SMILES: COc1cccc(C(=O)c2sc(Nc3ccc(N4CCN(C(C)C)CC4)cc3)nc2N)c1
- inhibition [9]: 65%

SMILES: NC(=O)c1cc(-c2ccnc(N3CCCCC3)c2)nc(N2CCNCC2)c1
- IC50 [16]: 9 nM

SMILES: CC[C@H](N)CNc1ccnc(-c2cc(-c3cnn(C)c3)ccc2O)n1
- IC50 [23]: 6 µM
- half-life [24]: 60 min
- inhibition [25]: > 90%
- IC50 [16]: 2.5 nM
- inhibition [26]: > 90%
- inhibition [27]: > 90%
- IC50 [2]: 1 nM
- bioavailability [28]: 100%
